Where a name gives a salt, the structure may show the parent alone.
Molecular target: T1, recombinant human α1D receptor (Homo sapiens, UniProt P25100)
T1 construct: expressed in transfected cells; host or cells: human embryonic kidney 293 cells (HEK93 [sic]), membranes
T1 sequence (P25100 1-572): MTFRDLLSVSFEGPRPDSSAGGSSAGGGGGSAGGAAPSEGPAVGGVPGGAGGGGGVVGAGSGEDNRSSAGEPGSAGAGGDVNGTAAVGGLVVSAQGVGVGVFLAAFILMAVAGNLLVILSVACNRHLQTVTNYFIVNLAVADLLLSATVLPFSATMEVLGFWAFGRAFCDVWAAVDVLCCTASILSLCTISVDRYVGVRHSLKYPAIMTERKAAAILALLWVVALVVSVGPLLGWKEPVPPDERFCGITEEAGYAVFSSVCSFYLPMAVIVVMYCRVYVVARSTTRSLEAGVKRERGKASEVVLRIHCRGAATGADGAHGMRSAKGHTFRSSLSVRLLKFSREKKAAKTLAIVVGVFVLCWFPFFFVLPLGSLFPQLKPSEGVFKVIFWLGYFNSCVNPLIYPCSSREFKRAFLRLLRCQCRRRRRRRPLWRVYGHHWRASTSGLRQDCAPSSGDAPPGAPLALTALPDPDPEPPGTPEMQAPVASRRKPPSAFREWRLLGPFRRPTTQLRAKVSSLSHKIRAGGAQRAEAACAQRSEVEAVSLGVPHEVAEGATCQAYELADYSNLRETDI
Experiment: Adrenergic α1D selectivity assay, [3H]-prazosin binding to membranes
Conditions: inhibition of [3H]-prazosin binding, HEK cell membranes, read-out: α1 bind pIC50 (converted)
Method in brief: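 Competition binding on HEK293 membranes with recombinant human α1D receptor, 0.3 nM [3H]-prazosin, 50 mM HEPES/1 mM EDTA pH 7.4, 2 h at room temperature; filtration and scintillation counting. Non-specific binding defined with 10 μM BMY7378. pIC50 from four-parameter logistic fit of specific-binding inhibition.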

SMILES	IC50
CCCC[C@@H](C)N(CCNCCc1ccc(O)c2c1OCC(=O)N2)C(=O)CCNCCc1ccc(F)c(C)c1 [Example 47, (R)-3-(4-Fluoro-3-methylphenethylamino)-N-(hexan-2-yl)-N-(2-(2-(5-hydroxy-3-oxo-3,4-dihydro-2H-benzo[b][1,4]oxazin-8-yl)ethylamino)ethyl)propanamide bis(trifluoroacetate)]	79.4 nM
CCOc1cccc(CCNCCC(=O)N(CCNCCc2ccc(O)c3[nH]c(=O)ccc23)C2CCCCCC2)c1 [Example 11, N-Cycloheptyl-3-(3-ethoxyphenethylamino)-N-(2-(2-(8-hydroxy-2-oxo-1,2-dihydroquinolin-5-yl)ethylamino)ethyl)propanamide bis(trifluoroacetate)]	316 nM
O=C(CCNCCc1ccc(Cl)cc1)N(CCNCCc1ccc(O)c2[nH]c(=O)ccc12)C1CCCCC1 [Example 14, 3-(4-Chlorophenethylamino)-N-cyclohexyl-N-(2-(2-(8-hydroxy-2-oxo-1,2-dihydroquinolin-5-yl)ethylamino)ethyl)propanamide bis(trifluoroacetate)]	501 nM
CC[C@@H](C)N(CCNCCc1ccc(O)c2c1OCC(=O)N2)C(=O)CCNCCc1ccc(Cl)c(Cl)c1 [Example 58, (R)—N-sec-Butyl-3-(3,4-dichlorophenethylamino)-N-(2-(2-(5-hydroxy-3-oxo-3,4-dihydro-2H-benzo[b][1,4]oxazin-8-yl)ethylamino)ethyl)propanamide dihydrochloride]	100 nM
O=C(CCNCCc1cccc(Cl)c1)N(CCNCCc1ccc(O)c2[nH]c(=O)ccc12)C1CCCCCC1 [Example 3, 3-(3-Chlorophenethylamino)-N-cycloheptyl-N-(2-(2-(8-hydroxy-2-oxo-1,2-dihydroquinolin-5-yl)ethylamino)ethyl)propanamide bis(trifluoroacetate)]	79.4 nM
CCCC[C@@H](C)N(CCNCCc1ccc(O)c2c1OCC(=O)N2)C(=O)CCNCCc1cc(F)cc(F)c1 [Example 51, (R)-3-(3,5-Difluorophenethylamino)-N-(hexan-2-yl)-N-(2-(2-(5-hydroxy-3-oxo-3,4-dihydro-2H-benzo[b][1,4]oxazin-8-yl)ethylamino)ethyl)propanamide bis(trifluoroacetate)]	316 nM
CC(C)[C@@H](C)N(CCNCCc1ccc(O)c2[nH]c(=O)ccc12)C(=O)CCOCCc1ccccc1.Cl [Example 80, (R)—N-(2-(2-(8-Hydroxy-2-oxo-1,2-dihydroquinolin-5-yl)ethylamino)ethyl)-N-(3-methylbutan-2-yl)-3-phenethoxypropanamide hydrochloride]	501 nM
CC(C)[C@@H](C)N(CCNCCc1ccc(O)c2c1OCC(=O)N2)C(=O)CCNCCc1ccc(Cl)c(Cl)c1 [Example 59, (R)-3-(3,4-Dichlorophenethylamino)-N-(2-(2-(5-hydroxy-3-oxo-3,4-dihydro-2H-benzo[b][1,4]oxazin-8-yl)ethylamino)ethyl)-N-(3-methylbutan-2-yl)propanamide dihydrochloride]	200 nM
CCCC[C@@H](C)N(CCNCCc1ccc(O)c2c1OCC(=O)N2)C(=O)CCNCCc1cc(F)cc(Cl)c1 [Example 50, (R)-3-(3-Chloro-5-fluorophenethylamino)-N-(hexan-2-yl)-N-(2-(2-(5-hydroxy-3-oxo-3,4-dihydro-2H-benzo[b][1,4]oxazin-8-yl)ethylamino)ethyl)propanamide bis(trifluoroacetate)]	200 nM
O=C(CCNCCc1cccc(F)c1F)N(CCNCCc1ccc(O)c2[nH]c(=O)ccc12)C1CCCCC1 [Example 18, N-Cyclohexyl-3-(3-difluorophenethylamino)-N-(2-(2-(8-hydroxy-2-oxo-1,2-dihydroquinolin-5-yl)ethylamino)ethyl)propanamide bis(trifluoroacetate)]	398 nM
CCCC[C@@H](C)N(CCNCCc1ccc(O)c2c1OCC(=O)N2)C(=O)CCNCCc1ccc(F)c(Cl)c1 [Example 48, (R)-3-(3-Chloro-4-fluorophenethylamino)-N-(hexan-2-yl)-N-(2-(2-(5-hydroxy-3-oxo-3,4-dihydro-2H-benzo[b][1,4]oxazin-8-yl)ethylamino)ethyl)propanamide bis(trifluoroacetate)]	126 nM
CCCC[C@@H](C)N(CCNCCc1ccc(O)c2c1OCC(=O)N2)C(=O)CCNCCc1ccccc1Cl [Example 46, (R)-3-(2-Chlorophenethylamino)-N-(hexan-2-yl)-N-(2-(2-(5-hydroxy-3-oxo-3,4-dihydro-2H-benzo[b][1,4]oxazin-8-yl)ethylamino)ethyl)propanamide bis(trifluoroacetate)]	79.4 nM
CCCC[C@@H](C)N(CCNCCc1ccc(O)c2c1OCC(=O)N2)C(=O)CCNCCc1cc(F)ccc1F [Example 54, (R)-3-(2,5-Difluorophenethylamino)-N-(hexan-2-yl)-N-(2-(2-(5-hydroxy-3-oxo-3,4-dihydro-2H-benzo[b][1,4]oxazin-8-yl)ethylamino)ethyl)propanamide bis(trifluoroacetate)]	79.4 nM

Results, then the molecule that gave them:

IC50	SMILES
1580 nM	O=C1COc2c(CCNCCN(C(=O)CCOCCc3ccccc3)C3CCCCC3)ccc(O)c2N1 [Example 70, N-Cyclohexyl-N-(2-(2-(5-hydroxy-3-oxo-3,4-dihydro-2H-benzo[b][1,4]oxazin-8-yl)ethylamino)ethyl)-3-phenethoxypropanamide trifluoroacetate]
126 nM	O=C1COc2c(CCNCCN(C(=O)CCNCCc3ccccc3)C3CCCCC3)ccc(O)c2N1 [Example 23, N-Cyclohexyl-N-(2-(2-(5-hydroxy-3-oxo-3,4-dihydro-2H-benzo[b][1,4]oxazin-8-yl)ethylamino)ethyl)-3-(phenethylamino)propanamide bis(trifluoroacetate)]
20 nM	C[C@H](C1CCCCC1)N(CCNCCc1ccc(O)c2c1OCC(=O)N2)C(=O)CCNCCc1ccccc1 [Example 61, (R)—N-(1-Cyclohexylethyl)-N-(2-(2-(5-hydroxy-3-oxo-3,4-dihydro-2H-benzo[b][1,4]oxazin-8-yl)ethylamino)ethyl)-3-(phenethylamino)propanamide bis(trifluoroacetate)]
31.6 nM	Cc1cc(CCNCCC(=O)N(CCNCCc2ccc(O)c3c2OCC(=O)N3)C2CCCCC2)ccc1F [Example 40, N-Cyclohexyl-3-(4-fluoro-3-methylphenethylamino)-N-(2-(2-(5-hydroxy-3-oxo-3,4-dihydro-2H-benzo[b][1,4]oxazin-8-yl)ethylamino)ethyl)propanamide bis(trifluoroacetate)]
158 nM	O=C1COc2c(CCNCCN(C(=O)CCNCCc3ccc(Cl)cc3Cl)C3CCCCC3)ccc(O)c2N1 [Example 31, N-Cyclohexyl-3-(2,4-dichlorophenethylamino)-N-(2-(2-(5-hydroxy-3-oxo-3,4-dihydro-2H-benzo[b][1,4]oxazin-8-yl)ethylamino)ethyl)propanamide bis(trifluoroacetate)]
> 10000 nM	O=C1COc2c(CCNCCN(C(=O)CCNCCc3ccc(C(=O)O)cc3)C3CCCCC3)ccc(O)c2N1 [Example 43, 4-(2-(3-(Cyclohexyl(2-(2-(5-hydroxy-3-oxo-3,4-dihydro-2H-benzo[b][1,4]oxazin-8-yl)ethylamino)ethyl)amino)-3-oxopropylamino)ethyl)benzoic acid bis(trifluoroacetate)]
100 nM	O=C1COc2c(CCNCCN(C(=O)CCNCCc3ccc(Cl)cc3)C3CCCCCC3)ccc(O)c2N1 [Example 63, 3-(4-Chlorophenethylamino)-N-cycloheptyl-N-(2-(2-(5-hydroxy-3-oxo-3,4-dihydro-2H-benzo[b][1,4]oxazin-8-yl)ethylamino)ethyl)propanamide bis(trifluoroacetate)]
794 nM	O=C1COc2c(CCNCCN(C(=O)CCOCCc3cccc(F)c3)C3CCCCC3)ccc(O)c2N1 [Example 74, N-Cyclohexyl-3-(3-fluorophenethoxy)-N-(2-(2-(5-hydroxy-3-oxo-3,4-dihydro-2H-benzo[b][1,4]oxazin-8-yl)ethylamino)ethyl)propanamide trifluoroacetate]
126 nM	O=C1COc2c(CCNCCN(C(=O)CCNCCc3cccc(Cl)c3Cl)C3CCCCC3)ccc(O)c2N1 [Example 29, N-Cyclohexyl-3-(2,3-dichlorophenethylamino)-N-(2-(2-(5-hydroxy-3-oxo-3,4-dihydro-2H-benzo[b][1,4]oxazin-8-yl)ethylamino)ethyl)propanamide bis(trifluoroacetate)]
158 nM	O=C1COc2c(CCNCCN(C(=O)CCNCCc3cccc(Cl)c3)C3CCCCCC3)ccc(O)c2N1 [Example 68, 3-(3-Chlorophenethylamino)-N-cycloheptyl-N-(2-(2-(5-hydroxy-3-oxo-3,4-dihydro-2H-benzo[b][1,4]oxazin-8-yl)ethylamino)ethyl)propanamide bis(trifluoroacetate)]
398 nM	O=C1COc2c(CCNCCN(C(=O)CCNCCc3cc(F)cc(F)c3)C3CCCCCC3)ccc(O)c2N1 [Example 65, N-Cycloheptyl-3-(3,5-difluorophenethylamino)-N-(2-(2-(5-hydroxy-3-oxo-3,4-dihydro-2H-benzo[b][1,4]oxazin-8-yl)ethylamino)ethyl)propanamide bis(trifluoroacetate)]
